Legend:
normal human osteoblasts [1] = assay: Normal human osteoblast cultures, cell death and cell number (PI, Hoechst 33342); type: cell-based; settings: 1000 nM, 10 days, versus control cultures
Procedure: Normal human osteoblast (NHO) were derived from the long bones of a human donor. The cells were purchased from Clonetics (BioWhittaker Company) and cultured according to their protocols with media and serum obtained from Clonetics. Ligands were added to the cell cultures once the cells had reached confluence. Cells were stained with Hoechst 33342, a DNA stain, to allow visualization of the cell nuclei and allow assessment of cell number (the cell nuclei appear white) (FIGS. 7A-C). FIGS. 7D-F the cells were stained with propidium iodide (a membrane impermeant nucleic acid stain) to allow visualization of dead or dying cells.

MC3T3-E1 cells [2] = assay: Cell viability, MTT assay; type: cell-based, mouse; settings: for cell viability: MC3T3-E1 early stage cultures, data not shown
Procedure: Cell viability was measured in MC3T3-E1 cells using the 3-[4,5-dimethylthiazol-2-yl]-2,5-diphenyltetrazolium bromide (MTT) assay in 96-well plates as described in the Roche Molecular Biochemicals product information. Briefly, cells were cultured to confluence, at which time various concentrations and combinations of ligands were added to the cultures followed by incubation for 24 to 60 hr. MTT substrate to a final concentration of 0.5 mg/ml was added to each well and the incubation was extended for a further 4 hr. At this time, cells were solubilized overnight in 10% sodium dodecyl sulfate (SDS) in 0.01 M HCl and absorbance was measured at 595 nm using a 650 nm reference wavelength.

MC3T3-E1 cells [3] = assay: Cell death, propidium iodide (PI) staining; type: cell-based, mouse; settings: for number of PI-stained cells (cell death): MC3T3-E1, single ligand
Procedure: Cultures of MC3T3-E1 were initiated at sub-confluence (1-2×10^4 cells/well) in 24-well plates and allowed to reach confluence prior to the addition of ligands, β-GP and ascorbate. […] Cells were incubated in the presence of the dye for 5 minutes, and images were acquired using epifluorescence with a XF35 filter set (Omega Optical) at low magnification (50×). The number of fluorescent-positive cells per microscopic field (3 mm^2) was counted using Northern Eclipse imaging software.

normal human osteoblasts [4] = assay: Normal human osteoblast cultures, mineralization (alizarin red S, Von Kossa); type: cell-based; settings: 1000 nM, versus control cultures
MC3T3-E1 cells [5] = assay: Histological analysis of mineralization (Alizarin Red S) in MC3T3-E1 cultures; type: cell-based, mouse; settings: for mineralization (Alizarin Red S staining), concentration dependence: MC3T3-E1 mineralizing cultures
Procedure: MC3T3-E1 cells were maintained in Minimum Essential Medium Eagle-modification supplemented with 10% fetal bovine serum (Gibco-BRL) and subcultured as previously described (20). For mineralization, cultures of MC3T3-E1 cells were supplemented with ascorbate (50 μg/ml) and β-glycerolphosphate (β-GP, 10 mM), and the medium was changed every 3 days. These compounds, in addition to ligands, were added to the media once the cultures had reached confluence. MC3T3-637OC stable transfectants were cultured in the same manner and supplemented with active G418 (700 μg/ml). COSP7 cells were cultured in Dulbecco's Modified Eagle's Medium containing 10% FBS and antibiotics. All-trans RA was obtained from Sigma. 4-[E-2-(5,6,7,8-Tetrahydro-5,5,8,8-tetramethyl-2-naphthalenyl)-1-propenyl] benzoic acid (TTNPB), 1,25 VD3 and 9-cis RA were purchased from BioMol.
MC3T3-E1 cells were seeded at 2×10^4 cells/well into 12-well plates, and medium was changed at three-day intervals for a period of 4 weeks. Matrix calcification within the cultures was measured by histological staining with Alizarin Red S (Sigma). Cells were fixed for 10 min in equal parts of 40% formaldehyde and methanol, rinsed briefly in 50% ethanol followed by a rinse in water. Samples were then stained with Alizarin Red S (2% w/v, pH 4.2) for 2 min, followed by a 30-second wash in acetone and allowed to air dry. A Zeiss SV11 dissection microscope connected to a Sony DXC-950 video camera was used to capture digital images. The extent of mineralization for each culture was determined by calculating the percentage of surface area occupied by Alizarin Red S-stained material using Northern Eclipse image analysis software (Empix Imaging Inc.). All images were captured from the center of the well at low magnification, a field which represents ˜65% of the total surface area of the well.

RARα = biological target: T1, RARα (Homo sapiens, UniProt P10276); settings: cited from earlier work
T1 sequence (P10276 1-462): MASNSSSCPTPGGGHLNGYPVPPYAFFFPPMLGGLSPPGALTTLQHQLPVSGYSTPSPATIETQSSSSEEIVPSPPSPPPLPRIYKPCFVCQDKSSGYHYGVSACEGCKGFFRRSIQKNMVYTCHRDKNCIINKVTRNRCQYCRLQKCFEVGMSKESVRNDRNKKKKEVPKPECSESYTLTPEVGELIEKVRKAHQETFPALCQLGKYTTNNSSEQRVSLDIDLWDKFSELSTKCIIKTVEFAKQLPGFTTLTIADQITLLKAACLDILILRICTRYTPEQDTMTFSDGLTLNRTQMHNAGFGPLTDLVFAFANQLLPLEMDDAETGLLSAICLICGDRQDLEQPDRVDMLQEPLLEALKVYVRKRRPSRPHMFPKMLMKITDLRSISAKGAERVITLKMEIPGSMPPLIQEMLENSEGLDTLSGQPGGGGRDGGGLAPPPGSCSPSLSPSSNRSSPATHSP

RARγ = biological target: T2, RARγ (Homo sapiens, UniProt P13631); settings: compared with RARα; cited from earlier work
T2 sequence (P13631 1-454): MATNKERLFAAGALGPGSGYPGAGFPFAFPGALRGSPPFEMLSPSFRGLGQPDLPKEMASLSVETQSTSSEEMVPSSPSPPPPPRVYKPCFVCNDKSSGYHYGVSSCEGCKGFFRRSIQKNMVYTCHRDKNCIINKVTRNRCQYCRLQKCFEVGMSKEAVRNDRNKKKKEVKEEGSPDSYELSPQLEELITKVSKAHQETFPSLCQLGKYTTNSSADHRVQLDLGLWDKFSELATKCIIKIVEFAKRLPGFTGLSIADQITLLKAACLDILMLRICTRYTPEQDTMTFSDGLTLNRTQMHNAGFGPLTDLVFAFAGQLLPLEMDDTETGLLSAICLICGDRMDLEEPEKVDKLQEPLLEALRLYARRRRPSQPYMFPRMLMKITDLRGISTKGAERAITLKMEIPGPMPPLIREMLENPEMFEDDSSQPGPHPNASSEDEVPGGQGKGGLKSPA

[6] = system: OC mRNA in MC3T3-E1 cultures; assay: Northern blotting of osteocalcin (OC) mRNA; type: cell-based, mouse; settings: MC3T3-E1, 1000 nM
Procedure: Total RNA was isolated with TriPure Isolation Reagent (Roche Molecular Biochemicals) from MC3T3-E1 cultures under mineralizing conditions at various times after culture initiation. RNA samples were separated by electrophoresis of 15 μg aliquots on a 1% agarose-formaldehyde gel. RNA was then transferred to a Hybond-N nylon membrane (Amersham-Pharmacia Biotech) and cross-linked by UV irradiation. Blots were pre-hybridized in Ultrahyb (Ambion) at 45° C. for at least 1 hr. A radiolabeled rat cDNA probe to OC (provided by J. E. Aubin, University of Toronto) was synthesized by random priming. Hybridizations were carried out overnight in Ultrahyb at 42° C. Following hybridization, blots were washed twice with 2×SSC, 0.1% SDS containing buffer for 5 min each at 42° C., followed by two washes in 0.1×SSC, 0.1% SDS for 15 min each at 42° C. and exposed to BioMax X-ray film at −80° C. for 24 hr.

RARβ = biological target: T3, RARβ (Homo sapiens, UniProt P10826); settings: compared with RARα; cited from earlier work
T3 sequence (P10826 1-455): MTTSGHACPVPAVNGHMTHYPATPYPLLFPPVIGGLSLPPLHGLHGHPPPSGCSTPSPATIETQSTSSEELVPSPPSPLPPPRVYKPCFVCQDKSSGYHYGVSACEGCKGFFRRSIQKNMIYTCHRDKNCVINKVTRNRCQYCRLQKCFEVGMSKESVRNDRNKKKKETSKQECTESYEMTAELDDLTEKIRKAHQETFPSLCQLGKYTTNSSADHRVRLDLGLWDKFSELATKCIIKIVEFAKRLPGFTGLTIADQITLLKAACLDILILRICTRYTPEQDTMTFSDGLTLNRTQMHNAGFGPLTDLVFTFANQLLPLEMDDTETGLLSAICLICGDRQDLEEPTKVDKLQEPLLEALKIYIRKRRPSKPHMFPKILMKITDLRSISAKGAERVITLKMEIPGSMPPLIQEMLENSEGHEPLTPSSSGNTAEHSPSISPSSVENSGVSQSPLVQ

CC1=C(/C=C/C(C)=C/C=C/C(C)=C/C(=O)O)C(C)(C)CCC1 [all-trans RA, all-trans retinoic acid]
cell death (PI staining) (normal human osteoblasts [1]): increased cell death
cell number (Hoechst 33342) (normal human osteoblasts [1]): decreased cell number
cell viability (MC3T3-E1 cells [2]): concentration-dependent decrease in cell viability
number of PI-stained cells (cell death) (MC3T3-E1 cells [3]): stimulate cell death
alizarin red staining (normal human osteoblasts [4]; fifteen day old cultures): reduced alizarin red staining

CC1=C(/C=C/C(C)=C\C=C\C(C)=C\C(=O)O)C(C)(C)CCC1 [9-cis RA, 9-cis retinoic acid]
cell viability (MC3T3-E1 cells [2]): concentration-dependent decrease in cell viability
number of PI-stained cells (cell death) (MC3T3-E1 cells [3]): stimulate cell death

C=C1/C(=C\C=C2/CCC[C@]3(C)[C@@H]([C@H](C)CCCC(C)(C)O)CC[C@@H]23)C[C@@H](O)C[C@@H]1O [1,25 VD3, 1α,25-dihydroxy vitamin-D3]
cell viability (MTT) (MC3T3-E1 cells [2]; MC3T3-E1, 60 hr, individual ligand): decreased cell viability
amount of Alizarin Red-staining (MC3T3-E1 cells [5]; MC3T3-E1, 28 days, 0.1 nM): decrease in the amount of Alizarin Red-staining
mineralization (Alizarin Red S staining), concentration dependence (MC3T3-E1 cells [5]): concentration-dependent decrease in mineralization
potency in raising PI-stained bodies, compared with the RAR-agonist (MC3T3-E1 cells [3]; MC3T3-E1, over the concentration range examined): greater potency than the RAR-agonist
number of PI-stained cells (cell death) (MC3T3-E1 cells [3]): greater number of PI-stained bodies

C/C(=C\c1ccc(C(=O)O)cc1)c1ccc2c(c1)C(C)(C)CCC2(C)C [TTNPB, 4-[E-2-(5,6,7,8-Tetrahydro-5,5,8,8-tetramethyl-2-naphthalenyl)-1-propenyl] benzoic acid]
cell viability (MC3T3-E1 cells [2]): concentration-dependent decrease in cell viability
number of PI-stained cells (cell death) (MC3T3-E1 cells [3]): stimulate cell death

Cc1ccc(C2=CC(C)(C)Oc3c(Br)cc(C(=O)Nc4ccc(C(=O)O)c(F)c4)cc32)cc1 [AGN194301, 2-Fluoro-4-[(1-(8-bromo-2,2-dimethyl-4-(4-methylphenyl)-2-H-chromen-6-yl)-methanoyl)-amino]-benzoic acid]
affinity for RARα (RARα): high affinity
antagonism of RARα (RARα): potent antagonist
affinity for RARγ (RARγ): lower affinity
OC expression [6]: stimulated OC expression
culture time after which strong OC mRNA expression became evident ([6]; wild-type cultures 18 days): 12 days
bone formation relative to control cultures (MC3T3-E1 cells [5]; 100 nM AGN194301 added to cultures treated with 10 nM 1,25 VD3): ~70%
increase of Alizarin Red S staining over untreated controls (MC3T3-E1 cells [5]; MC3T3-E1, 28 days, 10 nM): approximately 3 fold
culture surface area stained with Alizarin Red S (MC3T3-E1 cells [5]; MC3T3-E1, 28 days, 1 μM, control cultures approximately 18%): approximately 95%
mineralization (Alizarin Red S staining), concentration dependence (MC3T3-E1 cells [5]): concentration-dependent increase in Alizarin Red S staining
affinity for RARβ (RARβ): lower affinity
number of PI-positive cells relative to 1,25 VD3 treated culture (MC3T3-E1 cells [3]; AGN194301 added to 1,25 VD3-treated cultures, 36 hr): less than 20%
appearance of PI-positive cells (MC3T3-E1 cells [3]; MC3T3-E1, AGN194301 alone): no appreciable effect
mineral deposition (Von Kossa, calcium phosphate) (normal human osteoblasts [4]; 19 days of ligand treatment): stimulates mineral deposition
